Results on one compound are retold here after ChEMBL document CHEMBL3352410 (J Med Chem, 2014).

SMILES strings stand for the structures.

Assay [1] concerns the target T1, Mu-type opioid receptor (Homo sapiens, UniProt P35372). The experiment in a line: Binding affinity to human mu opioid receptor expressed in CHO cells. Format: cell-based.
In assay [2] the target is T2, Delta-type opioid receptor (Homo sapiens, UniProt P41143). The experiment in a line: Antagonist activity at human delta opioid receptor expressed in CHO cells assessed as inhibition of DPDPE-stimulated [35S]GTPgammaS binding. The assay is classed as functional, cell-based.
T2 sequence (P41143 whole entry): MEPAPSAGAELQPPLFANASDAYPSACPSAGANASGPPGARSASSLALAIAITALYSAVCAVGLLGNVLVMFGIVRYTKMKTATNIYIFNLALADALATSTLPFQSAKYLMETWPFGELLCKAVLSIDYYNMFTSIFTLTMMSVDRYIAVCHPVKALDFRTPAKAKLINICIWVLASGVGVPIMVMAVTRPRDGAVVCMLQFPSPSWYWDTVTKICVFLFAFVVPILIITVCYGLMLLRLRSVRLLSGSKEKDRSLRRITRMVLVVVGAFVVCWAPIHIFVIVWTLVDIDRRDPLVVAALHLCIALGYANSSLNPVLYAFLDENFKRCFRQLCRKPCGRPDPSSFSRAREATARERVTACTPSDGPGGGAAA
Assay [3] addresses T3, Kappa-type opioid receptor (Homo sapiens, UniProt P41145). The experiment in a line: Binding affinity to human kappa opioid receptor expressed in CHO cells. The assay is classed as cell-based.
Assay [4] has as its target T3, Kappa-type opioid receptor. The experiment in a line: Antagonist activity at human kappa opioid receptor expressed in CHO cells assessed as inhibition of U69,593-stimulated [35S]GTPgammaS binding. The assay is classed as functional, cell-based.
For assay [5], the target named is T1, Mu-type opioid receptor. The experiment in a line: Antagonist activity at human mu opioid receptor expressed in CHO cells assessed as inhibition of DAMGO-stimulated [35S]GTPgammaS binding. Format: functional, cell-based.
Assay [6] concerns the target T2, Delta-type opioid receptor. The experiment in a line: Binding affinity to human delta opioid receptor expressed in CHO cells. The assay is classed as cell-based.

T3 sequence (P41145 whole entry): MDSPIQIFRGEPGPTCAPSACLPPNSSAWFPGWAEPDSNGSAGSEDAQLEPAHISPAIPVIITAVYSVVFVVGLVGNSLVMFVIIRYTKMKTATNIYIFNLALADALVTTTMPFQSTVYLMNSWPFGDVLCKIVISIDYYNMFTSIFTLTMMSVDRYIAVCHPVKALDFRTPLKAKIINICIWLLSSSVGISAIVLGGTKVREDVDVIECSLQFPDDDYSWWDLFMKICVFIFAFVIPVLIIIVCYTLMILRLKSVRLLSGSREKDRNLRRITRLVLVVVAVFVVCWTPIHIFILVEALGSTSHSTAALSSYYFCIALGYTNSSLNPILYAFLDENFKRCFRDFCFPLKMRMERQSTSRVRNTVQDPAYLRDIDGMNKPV
T1 sequence (P35372 whole entry): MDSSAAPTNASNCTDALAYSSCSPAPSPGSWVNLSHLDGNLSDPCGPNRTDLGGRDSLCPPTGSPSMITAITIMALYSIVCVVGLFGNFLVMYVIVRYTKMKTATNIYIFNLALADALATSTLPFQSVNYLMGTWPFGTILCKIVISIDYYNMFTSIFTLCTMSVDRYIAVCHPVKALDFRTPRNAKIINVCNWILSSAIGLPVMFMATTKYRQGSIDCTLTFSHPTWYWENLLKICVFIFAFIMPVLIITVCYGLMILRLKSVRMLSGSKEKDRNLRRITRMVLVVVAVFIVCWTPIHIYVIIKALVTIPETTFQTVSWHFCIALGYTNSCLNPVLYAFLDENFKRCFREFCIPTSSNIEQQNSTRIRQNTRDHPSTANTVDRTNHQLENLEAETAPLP

`C[C@H]1CN(CC[C@H](O)C2CCCCC2)CC[C@@]1(C)c1ccccc1`: the Ki in assay [1] came out at 7.7 nM; in assay [3], 749 nM; in assay [6], 169 nM. The antagonist dissociation constant (Kb) in assay [2] worked out at 47.1 nM; in assay [4], 40.6 nM; in assay [5] it was 1.6 nM.
